Measured values reported in US6881741B2 (ViroChem Pharma Inc., priority 2001, dated 2005).

What follows are compounds tested against recombinant HCV NS5B (HCV RNA-dependent RNA polymerase) (Hepatitis C virus genotype 1b, UniProt P26663) (assay: biochemical). Details: related polymerase activity (Example 27 list); read-out: IC50.
Chain of recombinant HCV NS5B (HCV RNA-dependent RNA polymerase) (P26663 2420-3010 limits assumed): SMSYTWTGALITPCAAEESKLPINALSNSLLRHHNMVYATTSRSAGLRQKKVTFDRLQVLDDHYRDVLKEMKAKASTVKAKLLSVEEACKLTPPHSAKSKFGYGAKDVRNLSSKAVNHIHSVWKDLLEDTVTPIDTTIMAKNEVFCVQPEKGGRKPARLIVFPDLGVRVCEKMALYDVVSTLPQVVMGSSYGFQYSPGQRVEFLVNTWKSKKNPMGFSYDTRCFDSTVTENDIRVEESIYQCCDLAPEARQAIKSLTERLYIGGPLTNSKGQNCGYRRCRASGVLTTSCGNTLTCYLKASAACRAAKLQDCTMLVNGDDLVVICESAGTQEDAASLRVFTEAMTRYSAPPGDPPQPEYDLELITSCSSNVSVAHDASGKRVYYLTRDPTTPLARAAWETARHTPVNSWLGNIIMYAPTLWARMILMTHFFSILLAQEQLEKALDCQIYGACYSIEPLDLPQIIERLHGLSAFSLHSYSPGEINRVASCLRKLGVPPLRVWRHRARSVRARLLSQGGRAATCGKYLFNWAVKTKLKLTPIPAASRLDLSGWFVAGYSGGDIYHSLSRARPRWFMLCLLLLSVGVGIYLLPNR

SMILES | IC50 [µM]
Cc1cc(Cl)ccc1C(=O)N(c1cc(-c2ccccc2)sc1C(=O)O)C(C)C [Compound 234, 3-[(4-CHLORO-2-METHYL-BENZOYL)-ISOPROPYL-AMINO]-5-PHENYL-THIOPHENE-2-CARBOXYLIC ACID] | < 5
Cc1ccc(S(=O)(=O)N(C)c2cc(-c3ccccc3)sc2C(=O)O)c(C)c1 [Compound 235, 3-[(2,4-DIMETHYL-BENZENESULFONYL)-METHYL-AMINO]-5-PHENYL-THIOPHENE-2-CARBOXYLIC ACID] | < 5
CC(=O)c1ccc(-c2cc(NS(=O)(=O)c3ccc(C)cc3C)c(C(=O)O)s2)cc1 [Compound 236, 5-(4-ACETYL-PHENYL)-3-(2,4-DIMETHYL-BENZENESULFONYLAMINO)-THIOPHENE-2-CARBOXYLIC ACID] | < 5
CC(=O)c1ccc(-c2cc(NS(=O)(=O)c3ccc(C)cc3)c(C(=O)O)s2)cc1 [Compound 237, 5-(4-ACETYL-PHENYL)-3-(TOLUENE-4-SULFONYLAMINO)-THIOPHENE-2-CARBOXYLIC ACID] | < 5
CC(=O)c1ccc(-c2cc(NS(=O)(=O)c3ccc(Cl)cc3)c(C(=O)O)s2)cc1 [Compound 238, 5-(4-ACETYL-PHENYL)-3-(4-CHLORO-BENZENESULFONYLAMINO)-THIOPHENE-2-CARBOXYLIC ACID] | < 5
Cc1ccccc1S(=O)(=O)Nc1cc(-c2ccc(C(=O)O)cc2)sc1C(=O)OC(C)(C)C [Compound 239, 5-(4-CARBOXY-PHENYL)-3-(TOLUENE-2-SULFONYLAMINO)-THIOPHENE-2-CARBOXYLIC ACID TERT-BUTYL ESTER] | 5 to 20
Cc1ccc(S(=O)(=O)N(c2cc(-c3ccccc3)sc2C(=O)O)C(C)C)c(C)c1 [Compound 240, 3-[(2,4-DIMETHYL-BENZENESULFONYL)-ISOPROPYL-AMINO]-5-PHENYL-THIOPHENE-2-CARBOXYLIC ACID] | 5 to 20
CC(=O)N(Cc1ccc(Cl)cc1)c1cc(-c2ccccc2)sc1C(=O)O [Compound 241, 3-[ACETYL-(4-CHLORO-BENZYL)-AMINO]-5-PHENYL-THIOPHENE-2-CARBOXYLIC ACID] | 5 to 20
CCS(=O)(=O)Nc1cc(-c2ccccc2)sc1C(=O)O [Compound 242, 3-ETHANESULFONYLAMINO-5-PHENYL-THIOPHENE-2-CARBOXYLIC ACID] | 5 to 20
CC(C)N(C(=O)c1ccc(C(F)(F)F)cc1)c1cc(-c2ccccc2)sc1C(=O)O [Compound 243, 3-[ISOPROPYL-(4-TRIFLUOROMETHYL-BENZOYL)-AMINO]-5-PHENYL-THIOPHENE-2-CARBOXYLIC ACID] | < 5
CC(C)=CCN(C(=O)c1ccc(Cl)cc1Cl)c1cc(-c2ccccc2)sc1C(=O)O [Compound 244, 3-[(2,4-DICHLORO-BENZOYL)-(3-METHYL-BUT-2-ENYL)-AMINO]-5-PHENYL-THIOPHENE-2-CARBOXYLIC ACID] | < 5
CN(C(=O)c1ccc(Cl)nc1Cl)c1cc(-c2ccccc2)sc1C(=O)O [Compound 245, 3-[(2,6-DICHLORO-PYRIDINE-3-CARBONYL)-METHYL-AMINO]-5-PHENYL-THIOPHENE-2-CARBOXYLIC ACID] | 5 to 20
CC(C)N(C(=O)c1ccc(Cl)nc1)c1cc(-c2ccccc2)sc1C(=O)O [Compound 246, 3-[(6-CHLORO-PYRIDINE-3-CARBONYL)-ISOPROPYL-AMINO]-5-PHENYL-THIOPHENE-2-CARBOXYLIC ACID] | > 20
CN(C(=O)c1ccc(C(C)(C)C)cc1)c1cc(-c2ccccc2)sc1C(=O)O [Compound 247, 3-[(4-TERT-BUTYL-BENZOYL)-METHYL-AMINO]-5-PHENYL-THIOPHENE-2-CARBOXYLIC ACID] | 5 to 20
Cc1ccccc1S(=O)(=O)Nc1cc(-c2ccc(C(=O)O)cc2)sc1C(=O)O [Compound 248, 5-(4-CARBOXY-PHENYL)-3-(TOLUENE-2-SULFONYLAMINO)-THIOPHENE-2-CARBOXYLIC ACID] | < 5
CC(C)N(C(=O)c1ccc(Cl)nc1Cl)c1cc(-c2ccccc2)sc1C(=O)O [Compound 250, 3-[(2,6-DICHLORO-PYRIDINE-3-CARBONYL)-ISOPROPYL-AMINO]-5-PHENYL-THIOPHENE-2-CARBOXYLIC ACID] | 5 to 20
CN(C(=O)c1cc2ccccc2s1)c1cc(-c2ccccc2)sc1C(=O)O [Compound 251, 3-[(BENZO[B]THIOPHENE-2-CARBONYL)-METHYL-AMINO]-5-PHENYL-THIOPHENE-2-CARBOXYLIC ACID] | 5 to 20
CN(C(=O)c1ccc2ccccc2c1)c1cc(-c2ccccc2)sc1C(=O)O [Compound 252, 3-[METHYL-(NAPHTHALENE-2-CARBONYL)-AMINO]-5-PHENYL-THIOPHENE-2-CARBOXYLIC ACID] | 5 to 20
CN(C(=O)c1ccc(Cl)c(Cl)c1)c1cc(-c2ccccc2)sc1C(=O)O [Compound 253, 3-[(3,4-DICHLORO-BENZOYL)-METHYL-AMINO]-5-PHENYL-THIOPHENE-2-CARBOXYLIC ACID] | 5 to 20
CN(C(=O)c1cc(Cl)cc(Cl)c1)c1cc(-c2ccccc2)sc1C(=O)O [Compound 254, 3-[(3,5-DICHLORO-BENZOYL)-METHYL-AMINO]-5-PHENYL-THIOPHENE-2-CARBOXYLIC ACID] | 5 to 20
Cc1cc(C(=O)N(C)c2cc(-c3ccccc3)sc2C(=O)O)ccc1Br [Compound 255, 3-[(4-BROMO-3-METHYL-BENZOYL)-METHYL-AMINO]-5-PHENYL-THIOPHENE-2-CARBOXYLIC ACID] | < 5

SMILES | IC50 [µM]
CN(C(=O)c1sc2ccccc2c1Cl)c1cc(-c2ccccc2)sc1C(=O)O [Compound 256, 3-[(3-CHLORO-BENZO[B]THIOPHENE-2-CARBONYL)-METHYL-AMINO]-5-PHENYL-THIOPHENE-2-CARBOXYLIC ACID] | 5 to 20
Cc1ccc(C(=O)N(C)c2cc(-c3ccccc3)sc2C(=O)O)cc1[N+](=O)[O-] [Compound 257, 3-[METHYL-(4-METHYL-3-NITRO-BENZOYL)-AMINO]-5-PHENYL-THIOPHENE-2-CARBOXYLIC ACID] | 5 to 20
Cc1ccc(S(=O)(=O)Nc2cc(-c3ccc(C(N)=O)cc3)sc2C(=O)O)cc1 [Compound 259, 5-(4-CARBAMOYL-PHENYL)-3-(TOLUENE-4-SULFONYLAMINO)-THIOPHENE-2-CARBOXYLIC ACID] | < 5
Cc1ccccc1S(=O)(=O)Nc1cc(-c2ccc3[nH]ccc3c2)sc1C(=O)O [Compound 260, 5-(1H-INDOL-5-YL)-3-(TOLUENE-2-SULFONYLAMINO)-THIOPHENE-2-CARBOXYLIC ACID] | 5 to 20
CCC(C)N(C(=O)c1ccc(Cl)cc1Cl)c1cc(-c2ccccc2)sc1C(=O)O (centres unmarked) [Compound 261, 3-[SEC-BUTYL-(2,4-DICHLORO-BENZOYL)-AMINO]-5-PHENYL-THIOPHENE-2-CARBOXYLIC ACID] | < 5
Cc1ccc(C(=O)N(c2cc(-c3ccccc3)sc2C(=O)O)C(C)C)c(C)c1 [Compound 262, 3-[(2,4-DIMETHYL-BENZOYL)-ISOPROPYL-AMINO]-5-PHENYL-THIOPHENE-2-CARBOXYLIC ACID] | < 5
CC(c1ccccc1)N(C(=O)c1ccc(Cl)cc1Cl)c1cc(-c2ccccc2)sc1C(=O)O (centres unmarked) [Compound 264, 3-[(2,4-DICHLORO-BENZOYL)-(1-PHENYL-ETHYL)-AMINO]-5-PHENYL-THIOPHENE-2-CARBOXYLIC ACID] | < 5
NC(=O)c1ccc(-c2cc(NS(=O)(=O)c3ccc(Cl)cc3)c(C(=O)O)s2)cc1 [Compound 265, 5-(4-CARBAMOYL-PHENYL)-3-(4-CHLORO-BENZENESULFONYLAMINO)-THIOPHENE-2-CARBOXYLIC ACID] | < 5
Cc1ccc(C(=O)N(C)c2cc(-c3ccccc3F)sc2C(=O)O)cc1 [Compound 266, 5-(2-FLUORO-PHENYL)-3-[METHYL-(4-METHYL-BENZOYL)-AMINO]-THIOPHENE-2-CARBOXYLIC ACID] | < 5
Cc1ccc(C(=O)N(C)c2cc(-c3ccccc3C)sc2C(=O)O)cc1 [Compound 267, 3-[METHYL-(4-METHYL-BENZOYL)-AMINO]-5-O-TOLYL-THIOPHENE-2-CARBOXYLIC ACID] | < 5
Cc1ccc(C(=O)N(C)c2cc(-c3cccc(C)c3)sc2C(=O)O)cc1 [Compound 268, 3-[METHYL-(4-METHYL-BENZOYL)-AMINO]-5-M-TOLYL-THIOPHENE-2-CARBOXYLIC ACID] | < 5
Cc1ccc(C(=O)N(C)c2cc(-c3cccc(Cl)c3)sc2C(=O)O)cc1 [Compound 269, 5-(3-CHLORO-PHENYL)-3-[METHYL-(4-METHYL-BENZOYL)-AMINO]-THIOPHENE-2-CARBOXYLIC ACID] | < 5
Cc1ccc(C(=O)N(C)c2cc(-c3ccc(F)c(F)c3)sc2C(=O)O)cc1 [Compound 270, 5-(3,4-DIFLUORO-PHENYL)-3-[METHYL-(4-METHYL-BENZOYL)-AMINO]-THIOPHENE-2-CARBOXYLIC ACID] | < 5
Cc1ccc(C(=O)N(C)c2cc(-c3cccc(N)c3)sc2C(=O)O)cc1 [Compound 271, 5-(3-AMINO-PHENYL)-3-[METHYL-(4-METHYL-BENZOYL)-AMINO]-THIOPHENE-2-CARBOXYLIC ACID] | 5 to 20
CC(=O)c1cccc(-c2cc(N(C)C(=O)c3ccc(C)cc3)c(C(=O)O)s2)c1 [Compound 272, 5-(3-ACETYL-PHENYL)-3-[METHYL-(4-METHYL-BENZOYL)-AMINO]-THIOPHENE-2-CARBOXYLIC ACID] | 5 to 20
Cc1ccc(C(=O)N(C)c2cc(-c3cccc(O)c3)sc2C(=O)O)cc1 [Compound 273, 5-(3-HYDROXY-PHENYL)-3-[METHYL-(4-METHYL-BENZOYL)-AMINO]-THIOPHENE-2-CARBOXYLIC ACID] | < 5
Cc1ccc(C(=O)N(C)c2cc(-c3cccc(C(F)(F)F)c3)sc2C(=O)O)cc1 [Compound 274, 3-[METHYL-(4-METHYL-BENZOYL)-AMINO]-5-(3-TRIFLUOROMETHYL-PHENYL)-THIOPHENE-2-CARBOXYLIC ACID] | < 5
Cc1ccc(C(=O)N(C)c2cc(-c3ccc(C(F)(F)F)cc3)sc2C(=O)O)cc1 [Compound 275, 3-[METHYL-(4-METHYL-BENZOYL)-AMINO]-5-(4-TRIFLUOROMETHYL-PHENYL)-THIOPHENE-2-CARBOXYLIC ACID] | < 5
COc1ccc(C(=O)N(C)c2cc(-c3ccccc3)sc2C(=O)O)cc1OC [Compound 276, 3-[(3,4-DIMETHOXY-BENZOYL)-METHYL-AMINO]-5-PHENYL-THIOPHENE-2-CARBOXYLIC ACID] | > 20
CN(C(=O)c1ccc(C(F)(F)F)c(F)c1F)c1cc(-c2ccccc2)sc1C(=O)O [Compound 278, 3-[(2,3-DIFLUORO-4-TRIFLUOROMETHYL-BENZOYL)-METHYL-AMINO]-5-PHENYL-THIOPHENE-2-CARBOXYLIC ACID] | 5 to 20
